According to patent US20230132823A1, “BI-FUNCTIONAL COMPOUNDS AND METHODS FOR TARGETED UBIQUITINATION OF ANDROGEN RECEPTOR” (MONTELINO THERAPEUTICS, INC., priority 2020, published 2023):

System: VCaP
Assay: VCaP cell proliferation
Format: cell-based, human
Conditions: androgen-responsive cell line; 1 μM

Cc1ncsc1-c1ccc([C@H](C)NC(=O)[C@@H]2C[C@@H](O)CN2C(=O)[C@@H](NC(=O)CCCCNC(=O)COc2c(-c3csc(N4CCOCC4)n3)ccc(F)c2F)C(C)(C)C)cc1 [Example 16, (2S,4R)-1-((S)-2-(5-(2-(2,3-difluoro-6-(2-morpholinothiazol-4-yl)phenoxy)acetamido)pentanamido)-3,3-dimethylbutanoyl)-4-hydroxy-N-((S)-1-(4-(4-methylthiazol-5-yl)phenyl)ethyl)pyrrolidine-2-carboxamide]
effect on proliferation of VCaP: inhibits the proliferation
